From US7320979B2, “N-[(piperazinyl)hetaryl]arylsulfonamide compounds” (Abbott GmbH & Co. KG., priority 2003, dated 2008)
Structures can show the parent of a compound that is named as a salt.

Legend:
[1] = target: T1, human dopamine D3 receptors (Homo sapiens, UniProt P35462); assay: Dopamine D3 receptor binding, displacement of [125I]-iodosulpride; conditions: membranes of HEK-293 cells stably expressing human D3 receptors; 0.1 nM [125I]-iodosulpride; 25° C., 60 minutes
T1 construct: expressed in transfected cells; host or cells: HEK-293
T1 sequence (P35462 whole entry): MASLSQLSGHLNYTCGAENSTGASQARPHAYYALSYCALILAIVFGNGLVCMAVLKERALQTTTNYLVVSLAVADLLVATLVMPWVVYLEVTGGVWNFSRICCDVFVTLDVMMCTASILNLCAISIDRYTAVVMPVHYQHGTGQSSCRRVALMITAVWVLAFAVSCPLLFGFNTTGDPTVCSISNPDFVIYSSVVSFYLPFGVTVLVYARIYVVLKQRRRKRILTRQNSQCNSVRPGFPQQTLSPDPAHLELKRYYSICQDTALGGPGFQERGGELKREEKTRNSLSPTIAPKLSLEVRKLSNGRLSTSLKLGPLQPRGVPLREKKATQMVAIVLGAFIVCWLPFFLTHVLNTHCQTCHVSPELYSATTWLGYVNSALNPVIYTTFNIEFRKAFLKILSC
Description: (§1) The substance to be tested was either dissolved in methanol/Chremophor® (BASF-AG) or in dimethyl sulfoxide and then diluted with water to the desired concentration.
(§2) Each assay mixture was run in triplicate.
The incubation buffer contained 50 mM tris, 120 mM NaCl, 5 mM KCl, 2 mM CaCl2, 2 mM MgCl2 and 0.1% bovine serum albumin, 10 μM […] and 0.1% ascorbic acid (prepared fresh daily). The buffer was adjusted to pH 7.4 with HCl.
(§3) After having been incubated at 25° C. for 60 minutes, the assay mixtures were filtered through a Whatman GF/B glass fiber filter under vacuum using a cell collecting device. The filters were transferred to scintillation viols using a filter transfer system. After 4 ml of Ultima Gold® (Packard) have been added, the samples were shaken for one hour and the radioactivity was then counted in a Beta-Counter (Packard, Tricarb 2000 or 2200CA). The cpm values were converted into dpm using a standard quench series and the program belonging to the instrument.
(§4) The inhibition curves were analyzed by means of iterative nonlinear regression analysis using the Statistical Analysis System (SAS) which is similar to the “LIGAND” program described by Munson and Rodbard.

[2] = target: T2, human dopamine D2L receptors (long isoform) (Homo sapiens, UniProt P14416); assay: Dopamine D2L receptor binding, displacement of [125I] iodospiperone; conditions: footnote: ratio of the Ki values of the D3 and D2L binding tests
T2 construct: expressed in transfected cells; host or cells: HEK-293
T2 sequence (P14416 whole entry, canonical isoform): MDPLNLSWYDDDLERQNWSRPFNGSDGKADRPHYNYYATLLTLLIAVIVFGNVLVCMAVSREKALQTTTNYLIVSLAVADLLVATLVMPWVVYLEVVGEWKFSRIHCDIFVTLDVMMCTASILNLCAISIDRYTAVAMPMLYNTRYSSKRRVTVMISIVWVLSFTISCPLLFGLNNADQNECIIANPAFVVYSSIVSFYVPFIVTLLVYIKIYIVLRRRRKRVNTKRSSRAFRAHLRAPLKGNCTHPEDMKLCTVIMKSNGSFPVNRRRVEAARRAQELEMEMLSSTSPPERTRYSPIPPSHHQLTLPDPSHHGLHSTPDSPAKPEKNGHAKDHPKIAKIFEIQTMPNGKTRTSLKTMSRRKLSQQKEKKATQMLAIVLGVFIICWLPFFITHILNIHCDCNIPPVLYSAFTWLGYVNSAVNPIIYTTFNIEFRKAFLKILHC
Description: as §1, §2
The incubation buffer contained 50 mM tris, 120 mM NaCl, 5 mM KCl, 2 mM CaCl2, 2 mM MgCl2 and 0.1% bovine serum albumin. The buffer was adjusted to pH 7.4 with HCl.
as §3, §4

Ki [1] [nM] | Selectivity vs. D2L [2] | Compound
11.4 | 108 | C=CCN1CCN(c2ccc(NS(=O)(=O)c3ccc(CC)cc3)cn2)CC1.Cl [Example 5, N-[6-(4-Allylpiperazin-1-yl)pyridin-3-yl]-4-ethylbenzenesulfonamide hydrochloride]
5.4 | 50 | Cc1cc(N2CCNCC2)ncc1NS(=O)(=O)c1ccc(C(C)C)cc1.Cl [Example 36, 4-Isopropyl-N-(4-methyl-6-piperazin-1-ylpyridin-3-yl)-benzenesulfonamide hydrochloride]
2.7 | 86 | C=CCN1CCN(c2cc(C)c(NS(=O)(=O)c3ccc(C(C)C)cc3)cn2)CC1.Cl [Example 37, N-[6-(4-Allylpiperazin-1-yl)-4-methylpyridin-3-yl]-4-isopropylbenzenesulfonamide hydrochloride]
34.6 | 30 | C=Cc1ccc(S(=O)(=O)Nc2cnc(N3CCN(CCC)CC3)cc2C)cc1.Cl [Example 39, N-[4-Methyl-6-(4-propylpiperazin-1-yl)pyridin-3-yl]-4-vinylbenzenesulfonamide hydrochloride]
14 | 96 | C=Cc1ccc(S(=O)(=O)Nc2ccc(N3CCN(CCC)CC3)nc2)cc1.Cl [Example 31, N-[6-(4-Propylpiperazin-1-yl)pyridin-3-yl]-4-vinylbenzenesulfonamide hydrochloride]
9.7 | 169 | C=CCN1CCN(c2ccc(NS(=O)(=O)c3ccc(C=C)cc3)cn2)CC1.Cl [Example 6, N-[6-(4-Allylpiperazin-1-yl)pyridin-3-yl]-4-vinylbenzenesulfonamide hydrochloride]
25.3 | 67 | CCCN1CCN(c2ccc(NS(=O)(=O)c3ccc(Cl)cc3)cn2)CC1 [Example 28, 4-Chloro-N-[6-(4-propylpiperazin-1yl)pyridin-3-yl]-benzenesulfonamide]
21.4 | 55 | CCCN1CCN(c2ccc(NS(=O)(=O)c3ccc(Br)cc3)cn2)CC1 [Example 27, 4-Bromo-N-[6-(4-propylpiperazin-1-yl)pyridin-3-yl]-benzenesulfonamide]
8.2 | 148 | CCCN1CCN(c2ncc(NS(=O)(=O)c3ccc(C(C)C)cc3)cn2)CC1.Cl [Example 17, 4-Isopropyl-N-[2-(4-propylpiperazin-1-yl)pyrimidin-5-yl]benzenesulfonamide hydrochloride]
9.6 | 73 | CCCN1CCN(c2ccc(NS(=O)(=O)c3ccc(CC)cc3)cn2)CC1.Cl [Example 34, 4-Ethyl-N-[6-(4-propylpiperazin-1-yl)pyridin-3-yl]-benzenesulfonamide hydrochloride]

Continued, compound first:

Compound | Ki [1] [nM] | Selectivity vs. D2L [2]
CCN1CCN(c2ncc(NS(=O)(=O)c3ccc(C(C)C)cc3)cn2)CC1.Cl [Example 53, N-[2-(4-Ethyl-piperazin-1-yl)-pyrimidin-5-yl]-4-isopropylbenzenesulfonamide, hydrochloride] | 8.8 | 149
C=CCN1CCN(c2ccc(NS(=O)(=O)c3ccc(C(C)C)cc3)cn2)CC1 [Example 1, N-[6-(4-Allylpiperazin-1-yl)pyridin-3-yl]-4-isopropylbenzenesulfonamide] | 3 | 232
CC(C)c1ccc(S(=O)(=O)Nc2cnc(N3CCNCC3)nc2)cc1 [Example 52, 4-Isopropyl-N-(2-piperazin-1-yl-pyrimidin-5-yl)-benzenesulfonamide] | 14.2 | 63
C=CCN1CCN(c2ccc(NS(=O)(=O)c3ccc(C(C)(C)C)cc3)c(C)n2)CC1 [Example 44, 4-tert-Butyl-[N-[2-(4-allylpiperazin-1-yl)-6-methylpyridin-5-yl]-benzenesulfonamide, fumarate] | 1.4 | 41
C=CCN1CCN(c2ccc(OS(=O)(=O)c3ccc(C(C)C)cc3)cn2)CC1 [Example 59, 4-Isopropyl-benzenesulfonic acid 6-(4-allyl-piperazin-1-yl)-pyridin-3-yl ester] | 16.2 | 75
C=CCN1CCN(c2ccc(NS(=O)(=O)c3ccc(CCC)cc3)cn2)CC1 [Example 2, N-[6-(4-Allylpiperazin-1-yl)pyridin-3-yl]-4-propylbenzenesulfonamide] | 5.5 | 25
N-[2-(4-Allylpiperazin-1-yl)pyridin-5-yl]-4-(N-pyrrolidinyl)benzenesulfonamide fumarate [Example 42] | 5.3 | 33
C=CCN1CCN(c2ccc(NS(=O)(=O)c3ccc(CCCC)cc3)cn2)CC1 [Example 3, N-[6-(4-Allylpiperazin-1-yl)pyridin-3-yl]-4-butylbenzenesulfonamide] | 5.9 | 15
C=CCN1CCN(c2ccc(NS(=O)(=O)c3ccc(C(C)C)cc3)c(C)n2)CC1 [Example 43] | 1.1 | 80
C=CCN1CCN(c2ccc(NS(=O)(=O)c3ccc(C(C)(C)CC)cc3)c(C)n2)CC1 [Example 45, 4-tert-pentyl-[N-[2-(4-Allylpiperazin-1-yl)-6-methylpyridin-5-yl]-benzenesulfonamide, Fumarate] | 1.4 | 24
CCCN1CCN(c2ncc(NS(=O)(=O)c3ccc(CC)cc3)cn2)C[C@@H]1C.Cl [Example 57, 4-Ethyl-N-[2-((S)-3-methyl-4-propyl-piperazin-1-yl)-pyrimidin-5-yl]-benzenesulfonamide, hydrochloride] | 7.3 | 234
C=CCN1CC2CC1CN2c1ccc(NS(=O)(=O)c2ccc(C(C)C)cc2)cn1.Cl (stereo not shown) [Example 30, N-[6-(5-Allyl-2,5-diazabicyclo[2.2.1]hept-2-yl)pyridin-3-yl]-4-isopropylbenzenesulfonamide hydrochloride] | 11.1 | 17
C=CCN1CCN(c2ncc(NS(=O)(=O)c3ccc(C(C)C)cc3)cn2)C[C@@H]1C.Cl [Example 55, N-[2-((S)-4-Allyl-3-methyl-piperazin-1-yl)-pyrimidin-5-yl]-4-isopropyl-benzenesulfonamide, hydrochloride] | 2.9 | 159
CCCN1CCN(c2ncc(NS(=O)(=O)c3ccc(C(C)C)cc3)cn2)C[C@@H]1C.Cl [Example 56, 4-Isopropyl-N-[2-((S)-3-methyl-4-propyl-piperazin-1-yl)-pyrimidin-5-yl]-benzenesulfonamide, hydrochloride] | 1.6 | 399
CCCN1CCN(c2ccc(NS(=O)(=O)c3ccc(CC)cc3)cn2)C[C@@H]1C.Cl [Example 46, 4-Ethyl-N-[6-((S)-3-methyl-4-propyl-piperazin-1-yl)-pyridin-3-yl]-benzenesulfonamide, hydrochloride] | 7.1 | 50
CCCN1CCN(c2ccc(OS(=O)(=O)c3ccc(C(C)C)cc3)cn2)CC1.Cl [Example 60, 4-Isopropyl-benzenesulfonic acid 6-(4-propyl-piperazin-1-yl)-pyridin-3-yl ester, hydrochloride] | 17.4 | 47
C=CCN1CCN(c2ccc(NS(=O)(=O)c3ccc(Cl)cc3)cn2)CC1.Cl [Example 35, N-[6-(4-Allylpiperazin-1-yl)pyridin-3-yl]-4-chlorobenzenesulfonamide hydrochloride] | 26.6 | 51
CCN1CCN(c2ncc(NS(=O)(=O)c3ccc(C(C)C)cc3)cn2)C[C@@H]1C.Cl [Example 54, N-[2-((S)-4-Ethyl-3-methyl-piperazin-1-yl)-pyrimidin-5-yl]-4-isopropylbenzenesulfonamide, hydrochloride] | 2.3 | 84
CCCN1CC2CC1CN2c1ccc(NS(=O)(=O)c2ccc(C(C)C)cc2)cn1.Cl (stereo not shown) [Example 29, 4-Isopropyl-N-[6-(5-propyl-2,5-diazabicyclo[2.2.1]hept-2-yl)pyridin-3-yl]-benzenesulfonamide hydrochloride] | 16.9 | 31
CCCN1CCN(c2ccc(NS(=O)(=O)c3ccc(C(C)C)cc3)cn2)C[C@@H]1CC.Cl [Example 51, N-[6-((S)-3-Ethyl-4-propyl-piperazin-1-yl)-pyridin-3-yl]-4-isopropylbenzenesulfonamide, hydrochloride] | 3.1 | 101
C=CCN1CCN(c2ncc(NS(=O)(=O)c3ccc(C(C)C)cc3)cn2)CC1 [Example 16, N-[2-(4-Allylpiperazin-1-yl)pyrimidin-5-yl]-4-isopropylbenzenesulfonamide] | 3.8 | 131
CCCN1CCN(c2ccc(NS(=O)(=O)c3ccc(C(C)C)cc3)cn2)C[C@@H]1C [Example 14a, 4-Isopropyl-N-{6-[(3S)-methyl-4-propylpiperazin-1-yl]pyridin-3-yl}benzenesulfonamide] | 1.5 | 184
